Measured values published in ChEMBL document CHEMBL3046609, “Herbicidal properties of the thaxtomin group of phytotoxins” (2001).
The source made the active and inactive calls. The rule behind the calls is not given here.

Experiments:
Helianthus annuus [1] = experiment: Herbicidal activity against Helianthus annuus (sunflower) assessed as visual injury at 10 ug/seedling applied to meristem after 1 week relative to control; format: functional
Helianthus annuus [2] = experiment: Herbicidal activity against Helianthus annuus (sunflower) assessed as visual injury at 100 ug/seedling applied to meristem after 1 week relative to control; format: functional
Echinochloa crus-galli [3] = experiment: Post-emergence herbicidal activity against Echinochloa crus-galli (barnyard grass) after 9 days; format: functional
Avena fatua [4] = experiment: Post-emergence growth inhibition of Avena fatua after 9 days; format: functional
Ipomoea hederacea [5] = experiment: Post-emergence herbicidal activity against Ipomoea hederacea (ivy-leaved morning glory) after 9 days; format: functional
Avena fatua [6] = experiment: Pre-emergence growth inhibition of Avena fatua assessed as visual injury at 2 kg/ha after 16 days relative to control; format: functional; parameters: scale not given: the % may be the effect or the level left
Ipomoea hederacea [7] = experiment: Herbicidal activity against Ipomoea hederacea (ivy-leaved morning glory) assessed as visual injury at 1 ug/seedling applied to cotyledon after 1 week relative to control; format: functional
Ipomoea hederacea [8] = experiment: Herbicidal activity against Ipomoea hederacea (ivy-leaved morning glory) assessed as visual injury at 100 ug/seedling applied to meristem after 1 week relative to control; format: functional
[9] = test system: Agrostis stolonifera var. palustris; experiment: Herbicidal activity against Agrostis stolonifera var. palustris assessed as stunting after 9 days by agarose-based test; format: functional, organism-based
Helianthus annuus [10] = experiment: Herbicidal activity against Helianthus annuus (sunflower) assessed as visual injury at 1 ug/seedling applied to cotyledon after 1 week relative to control; format: functional
Abutilon theophrasti [11] = experiment: Herbicidal activity against Abutilon theophrasti (velvetleaf) assessed as visual injury at 1 ug/seedling applied to leaf after 1 week relative to control; format: functional
Abutilon theophrasti [12] = experiment: Herbicidal activity against Abutilon theophrasti (velvetleaf) assessed as visual injury at 100 ug/seedling applied to leaf after 1 week relative to control; format: functional
Abutilon theophrasti [13] = experiment: Herbicidal activity against Abutilon theophrasti (velvetleaf) assessed as visual injury at 1 ug/seedling applied to meristem after 1 week relative to control; format: functional
Avena fatua [14] = experiment: Pre-emergence growth inhibition of Avena fatua assessed as meristematic at 0.5 to 4 kg/ha after 16 days; format: functional, organism-based
Abutilon theophrasti [15] = experiment: Herbicidal activity against Abutilon theophrasti (velvetleaf) assessed as visual injury at 100 ug/seedling applied to meristem after 1 week relative to control; format: functional
Helianthus annuus [16] = experiment: Pre-emergence growth inhibition of Helianthus annuus (sunflower) assessed as meristematic at 0.5 to 4 kg/ha after 16 days; format: functional, organism-based
Helianthus annuus [17] = experiment: Pre-emergence growth inhibition of Helianthus annuus (sunflower) assessed as stunting at 0.5 to 4 kg/ha after 16 days; format: functional, organism-based
Echinochloa crus-galli [18] = experiment: Pre-emergence herbicidal activity against Echinochloa crus-galli (barnyard grass) after 16 days; format: functional
Avena fatua [19] = experiment: Pre-emergence growth inhibition of Avena fatua after 16 days; format: functional
Helianthus annuus [20] = experiment: Pre-emergence growth inhibition of Helianthus annuus (sunflower) after 16 days; format: functional
Avena fatua [21] = experiment: Post-emergence growth inhibition of Avena fatua assessed as wilting at 0.5 to 4 kg/ha after 9 days; format: functional, organism-based
Ipomoea hederacea [22] = experiment: Post-emergence herbicidal activity against Ipomoea hederacea (ivy-leaved morning glory) assessed as wilting at 0.5 to 4 kg/ha after 9 days; format: functional, organism-based
Helianthus annuus [23] = experiment: Post-emergence growth inhibition of Helianthus annuus (sunflower) assessed as wilting at 0.5 to 4 kg/ha after 9 days; format: functional, organism-based
Echinochloa crus-galli [24] = experiment: Post-emergence herbicidal activity against Echinochloa crus-galli (barnyard grass) assessed as meristematic at 0.5 to 4 kg/ha after 9 days; format: functional, organism-based
Avena fatua [25] = experiment: Post-emergence growth inhibition of Avena fatua assessed as stunting at 0.5 to 4 kg/ha after 9 days; format: functional, organism-based
Echinochloa crus-galli [26] = experiment: Post-emergence herbicidal activity against Echinochloa crus-galli (barnyard grass) assessed as stunting at 0.5 to 4 kg/ha after 9 days; format: functional, organism-based
Helianthus annuus [27] = experiment: Post-emergence growth inhibition of Helianthus annuus (sunflower) assessed as stunting at 0.5 to 4 kg/ha after 9 days; format: functional, organism-based
Ipomoea hederacea [28] = experiment: Pre-emergence herbicidal activity against Ipomoea hederacea (ivy-leaved morning glory) assessed as visual injury at 4 kg/ha after 16 days relative to control; format: functional
Arabidopsis thaliana [29] = experiment: Growth inhibition of Arabidopsis thaliana var. Columbia assessed as root tip puffing after 9 days by agarose-based test; format: functional, organism-based
Arabidopsis thaliana [30] = experiment: Growth inhibition of Arabidopsis thaliana var. Columbia after 9 days by agarose-based test; format: functional
Lemna minor [31] = experiment: Herbicidal activity against Lemna minor (common duckweed) assessed as visual injury at 0.008 ppm after 9 days relative to control; format: functional
Lemna minor [32] = experiment: Herbicidal activity against Lemna minor (common duckweed) assessed as visual injury at 0.2 ppm after 9 days relative to control; format: functional
Lemna minor [33] = experiment: Herbicidal activity against Lemna minor (common duckweed) assessed as visual injury at 1 ppm after 9 days relative to control; format: functional
Lemna minor [34] = experiment: Herbicidal activity against Lemna minor (common duckweed) assessed as visual injury at 5 ppm after 9 days relative to control; format: functional
Echinochloa crus-galli [35] = experiment: Pre-emergence herbicidal activity against Echinochloa crus-galli (barnyard grass) assessed as visual injury at 0.5 kg/ha after 16 days relative to control; format: functional
Ipomoea hederacea [36] = experiment: Pre-emergence herbicidal activity against Ipomoea hederacea (ivy-leaved morning glory) assessed as visual injury at 0.5 kg/ha after 16 days relative to control; format: functional
Helianthus annuus [37] = experiment: Pre-emergence growth inhibition of Helianthus annuus (sunflower) assessed as visual injury at 1 kg/ha after 16 days relative to control; format: functional; parameters: scale not given: the % may be the effect or the level left
Helianthus annuus [38] = experiment: Pre-emergence growth inhibition of Helianthus annuus (sunflower) assessed as visual injury at 0.5 kg/ha after 16 days relative to control; format: functional; parameters: scale not given: the % may be the effect or the level left
Helianthus annuus [39] = experiment: Pre-emergence growth inhibition of Helianthus annuus (sunflower) assessed as visual injury at 2 kg/ha after 16 days relative to control; format: functional; parameters: scale not given: the % may be the effect or the level left
Helianthus annuus [40] = experiment: Pre-emergence growth inhibition of Helianthus annuus (sunflower) assessed as visual injury at 4 kg/ha after 16 days relative to control; format: functional; parameters: scale not given: the % may be the effect or the level left
Avena fatua [41] = experiment: Post-emergence growth inhibition of Avena fatua assessed as visual injury at 0.5 kg/ha after 9 days relative to control; format: functional; parameters: scale not given: the % may be the effect or the level left
Avena fatua [42] = experiment: Post-emergence growth inhibition of Avena fatua assessed as visual injury at 4 kg/ha after 9 days relative to control; format: functional; parameters: scale not given: the % may be the effect or the level left
Echinochloa crus-galli [43] = experiment: Post-emergence herbicidal activity against Echinochloa crus-galli (barnyard grass) assessed as visual injury at 1 kg/ha after 9 days relative to control; format: functional
Echinochloa crus-galli [44] = experiment: Post-emergence herbicidal activity against Echinochloa crus-galli (barnyard grass) assessed as visual injury at 2 kg/ha after 9 days relative to control; format: functional
Ipomoea hederacea [45] = experiment: Post-emergence herbicidal activity against Ipomoea hederacea (ivy-leaved morning glory) assessed as visual injury at 0.5 kg/ha after 9 days relative to control; format: functional
Ipomoea hederacea [46] = experiment: Post-emergence herbicidal activity against Ipomoea hederacea (ivy-leaved morning glory) assessed as visual injury at 2 kg/ha after 9 days relative to control; format: functional
Helianthus annuus [47] = experiment: Post-emergence growth inhibition of Helianthus annuus (sunflower) assessed as visual injury at 0.5 kg/ha after 9 days relative to control; format: functional; parameters: scale not given: the % may be the effect or the level left
Helianthus annuus [48] = experiment: Post-emergence growth inhibition of Helianthus annuus (sunflower) assessed as visual injury at 4 kg/ha after 9 days relative to control; format: functional; parameters: scale not given: the % may be the effect or the level left
Avena fatua [49] = experiment: Pre-emergence growth inhibition of Avena fatua assessed as visual injury at 1 kg/ha after 16 days relative to control; format: functional; parameters: scale not given: the % may be the effect or the level left

CN1C(=O)[C@](O)(Cc2cccc(O)c2)N(C)C(=O)[C@@H]1Cc1c[nH]c2cccc([N+](=O)[O-])c12 [THAXTOMIN A]
Activity (Helianthus annuus [1]): 90%
Activity (Helianthus annuus [2]): 90%
GR50 (Echinochloa crus-galli [3]): 2 kg/ha
GR50 (Avena fatua [4]): 2 kg/ha
GR50 (Ipomoea hederacea [5]): <500 g/ha
Activity (Avena fatua [6]): 100%
Activity (Ipomoea hederacea [7]): 0%
Activity (Ipomoea hederacea [8]): 80%
Activity [9]: Active
Activity (Helianthus annuus [10]): 0%
Activity (Abutilon theophrasti [11]): 0%
Activity (Abutilon theophrasti [12]): 0%
Activity (Abutilon theophrasti [13]): 20%
Activity (Avena fatua [14]): Active
Activity (Abutilon theophrasti [15]): 80%
Activity (Helianthus annuus [16]): Active
Activity (Helianthus annuus [17]): Active
GR50 (Echinochloa crus-galli [18]): <500 g/ha
GR50 (Avena fatua [19]): <500 g/ha
GR50 (Helianthus annuus [20]): <500 g/ha
Activity (Avena fatua [21]): Active
Activity (Ipomoea hederacea [22]): Active
Activity (Helianthus annuus [23]): Active
Activity (Echinochloa crus-galli [24]): Active
Activity (Avena fatua [25]): Active
Activity (Echinochloa crus-galli [26]): Active
Activity (Helianthus annuus [27]): Active
Activity (Ipomoea hederacea [28]): 100%
growth inhibition (GI) (Arabidopsis thaliana [29]): Active
I50 (Arabidopsis thaliana [30]): 10 ppb
Activity (Lemna minor [31]): 30%
Activity (Lemna minor [32]): 95%
Activity (Lemna minor [33]): 100%
Activity (Lemna minor [34]): 100%
Activity (Echinochloa crus-galli [35]): 98%
Activity (Ipomoea hederacea [36]): 100%
Activity (Helianthus annuus [37]): 100%
Activity (Helianthus annuus [38]): 70%
Activity (Helianthus annuus [39]): 100%
Activity (Helianthus annuus [40]): 100%
Activity (Avena fatua [41]): 0%
Activity (Avena fatua [42]): 80%
Activity (Echinochloa crus-galli [43]): 20%
Activity (Echinochloa crus-galli [44]): 40%
Activity (Ipomoea hederacea [45]): 70%
Activity (Ipomoea hederacea [46]): 80%
Activity (Helianthus annuus [47]): 75%
Activity (Helianthus annuus [48]): 85%
Activity (Avena fatua [49]): 100%
